Results as given in US20240158393A1, “PYRIDONE COMPOUNDS AND METHODS OF USE” (Exelixis, Inc., priority 2021, published 2024).

Key:
Human Axl = molecular target: T1, Human Axl (Homo sapiens, UniProt P30530); assay: Human AXL kinase assay (33P radiometric / HTRF KinEase); assay type: biochemical; settings: protocols of Examples A-1 and/or A-2
T1 construct: Human AXL (residues 464-885)
T1 sequence (P30530 1-894 Q764R): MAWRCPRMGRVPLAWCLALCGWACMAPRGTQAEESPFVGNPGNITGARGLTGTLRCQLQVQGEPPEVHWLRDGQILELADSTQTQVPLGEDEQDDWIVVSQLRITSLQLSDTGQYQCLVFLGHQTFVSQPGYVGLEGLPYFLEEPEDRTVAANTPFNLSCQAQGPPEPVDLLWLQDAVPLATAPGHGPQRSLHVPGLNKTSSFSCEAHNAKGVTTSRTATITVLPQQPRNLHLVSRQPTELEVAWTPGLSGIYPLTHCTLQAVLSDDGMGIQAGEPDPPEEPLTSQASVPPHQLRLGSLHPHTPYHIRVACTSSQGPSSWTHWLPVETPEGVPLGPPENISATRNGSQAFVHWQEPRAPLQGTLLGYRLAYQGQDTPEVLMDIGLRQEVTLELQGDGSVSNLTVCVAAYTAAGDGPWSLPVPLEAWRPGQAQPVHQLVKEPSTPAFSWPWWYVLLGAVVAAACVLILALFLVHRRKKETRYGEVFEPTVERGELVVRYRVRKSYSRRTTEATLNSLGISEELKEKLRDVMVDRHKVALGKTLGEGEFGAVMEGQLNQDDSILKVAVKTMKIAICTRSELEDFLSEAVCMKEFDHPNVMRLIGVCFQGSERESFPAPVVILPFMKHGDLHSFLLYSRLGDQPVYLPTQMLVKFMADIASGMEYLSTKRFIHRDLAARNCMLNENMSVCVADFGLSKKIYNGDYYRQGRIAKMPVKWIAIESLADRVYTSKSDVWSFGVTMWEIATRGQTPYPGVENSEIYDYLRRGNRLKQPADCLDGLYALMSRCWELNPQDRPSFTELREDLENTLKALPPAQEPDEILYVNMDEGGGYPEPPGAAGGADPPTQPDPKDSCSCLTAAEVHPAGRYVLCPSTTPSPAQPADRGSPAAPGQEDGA

Human KDR = molecular target: T2, Human KDR (Homo sapiens, UniProt P35968); assay: Human KDR kinase assay (33P radiometric / HTRF KinEase); assay type: biochemical; settings: protocols of Examples B-1 and/or B-2
T2 construct: Human KDR (residues K790-V1356, 55 nM); purchased Eurofins Pharma Discovery Services UK Limited (KinaseProfiler, B-1) and/or CarnaBio (B-2)
Procedure, shortened: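 Radiometric: KDR K790-V1356 (55 nM), MOPS pH 7.0, myelin basic protein, 10 μM [γ-33P]ATP, 40 min at room temperature, filter-bound 33P counted; nine half-log doses, top 1 μM. HTRF: KDR 790-1356, 1 μM biotinylated peptide, ATP at Km (4.0 μM), 40 min, 10 doses. IC50 from logistic fits.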

T2 sequence (P35968 790-1356): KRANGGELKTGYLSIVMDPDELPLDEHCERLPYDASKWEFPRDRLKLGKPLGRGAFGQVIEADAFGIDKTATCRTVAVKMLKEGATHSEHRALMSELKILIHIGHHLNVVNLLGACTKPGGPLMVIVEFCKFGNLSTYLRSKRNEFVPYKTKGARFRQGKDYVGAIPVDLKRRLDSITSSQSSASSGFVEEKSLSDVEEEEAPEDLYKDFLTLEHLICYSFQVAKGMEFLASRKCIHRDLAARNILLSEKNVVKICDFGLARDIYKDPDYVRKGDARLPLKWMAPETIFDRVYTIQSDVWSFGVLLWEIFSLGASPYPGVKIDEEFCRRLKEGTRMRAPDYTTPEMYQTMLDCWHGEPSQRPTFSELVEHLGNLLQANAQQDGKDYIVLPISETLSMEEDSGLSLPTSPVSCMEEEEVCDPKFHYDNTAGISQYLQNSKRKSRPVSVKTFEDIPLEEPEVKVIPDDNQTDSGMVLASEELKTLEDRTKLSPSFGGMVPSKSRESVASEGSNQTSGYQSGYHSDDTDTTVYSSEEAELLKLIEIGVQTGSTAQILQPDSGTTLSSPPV

| SMILES | IC50 (Human Axl) | IC50 (Human KDR) |
| --- | --- | --- |
| COc1cc2nccc(Oc3ccc(NC(=O)c4c5n(c(C)c(C6=CCCCC6)c4=O)CCOC5)cc3)c2nc1OC [Compound 100, 7-(Cyclohexen-1-yl)-N-[4-[(6,7-dimethoxy-1,5-naphthyridin-4-yl)oxy]phenyl]-6-methyl-8-oxo-3,4-dihydro-1H-pyrido[2,1-c][1,4]oxazine-9-carboxamide] | ≤ 100 nM | > 300 nM |
| COc1cc2nccc(Oc3ccc(NC(=O)c4c5n(cc(C6=CCCCC6)c4=O)CCOC5)cc3)c2nc1OC [Compound G1-5, 7-(Cyclohexen-1-yl)-N-[4-[(6,7-dimethoxy-1,5-naphthyridin-4-yl)oxy]phenyl]-8-oxo-3,4-dihydro-1H-pyrido[2,1-c][1,4]oxazine-9-carboxamide] | ≤ 100 nM | > 300 nM |
| COc1cc2nccc(Oc3ccc(NC(=O)c4c5n(cc(C6=CCOCC6)c4=O)CCOC5)cc3)c2nc1OC [Compound G1-8, 7-(3,6-Dihydro-2H-pyran-4-yl)-N-[4-[(6,7-dimethoxy-1,5-naphthyridin-4-yl)oxy]phenyl]-8-oxo-3,4-dihydro-1H-pyrido[2,1-c][1,4]oxazine-9-carboxamide] | ≤ 100 nM | > 300 nM |
